Results as given in patent US20240216352A1 (priority 2022, published 2024).
Values joined by “and” are separate entries in the source; they are usually repeats but may differ in a detail not shown here. Equal values may be shown once.

Assays:
LPA1 = LPA1 (Homo sapiens, UniProt Q92633); assay: LPA1 antagonism (Kb) in CHO cells overexpressing human LPA1; type: cell-based; parameters: expressed in transfected cells; host or cells: CHO cells
Description: Compound A is currently in clinical development as a therapy for IPF and PF-ILD.

[1] = test system: healthy Japanese participants; assay: Phase 1 Part C MAD Japanese cohorts: blood pressure; type: in vivo, human
Procedure: The study was performed in 3 parts in 112 healthy male and female participants, including 24 Japanese participants. Female participants were to be not of childbearing potential. The present study was designed to evaluate the safety and tolerability, PK, and exploratory PD of an oral suspension of Compound A. Parts A and B (Cohort B1 only) enrolled healthy participants and was conducted at a site in The Netherlands and Part B (Cohort B2 to B5) enrolled healthy non-Japanese participants and was conducted at a site in the United Kingdom (UK). Part C enrolled healthy Japanese participants and was conducted at the same site in the UK.
Part C was a MAD study in 3 sequential dose escalation cohorts (30 mg BID, 60 mg BID, and 90 mg BID) of 8 healthy Japanese participants (6 active+2 placebo) each. Eligible participants in Cohorts C1 to C3 received study drug (Compound A or placebo) administered orally for 14 days.
Physical examinations, vital sign measurements (including orthostasis testing in Cohort A6, Cohort B3 to B5, and C1 to C3 at selected time points), 12-lead electrocardiogram (ECG), and clinical laboratory evaluations were performed at selected times throughout the study. In addition, Holter monitoring was performed for the first 24 hours post dose on Day 1 in Part A (not in FE/pH cohort), and also for the first 24 hours post dose on Day 1 and Day 14 in Parts B and C. Participants were closely monitored for adverse events (AEs). Blood samples were collected for up to 14 days (follow-up visit) after (last) study drug administration for PK analysis. In addition, blood and urine were collected for exploratory biomarker assessments and for biobanking of samples for potential analyses. Urine was collected for potential PK analysis for up to 96 hours after a single dose of Compound A or placebo was administered in the SAD part, and for up to 24 hours after the first (morning) dose of study drug on Day 1 and for up to 24 hours after the last (morning) dose of study drug on Day 14 in the MAD parts.

participants with IPF = assay: Phase 2 study, IPF cohort: safety and blood pressure monitoring; type: in vivo, human; conditions: for Nadir post-dose mean reduction from baseline in sitting SBP: Day 1, 2 hours post-dose
Procedure: A total of 278 participants with IPF were randomized and 276 participants were treated as of the final analyses data cut-off (4 Aug. 2022). Male and female participants […] with IPF and percent predicted forced vital capacity (ppFVC) […] and percent predicted DLCO (ppDLCO)≥25%; diagnosed within 7 years of screening; having a centrally-read chest HRCT obtained at screening that was consistent with UIP or probable UIP, or having a lung biopsy consistent with UIP, were eligible to enter the study. The mean baseline ppFVC for all subjects was 76.5%. In the primary IPF cohort, participants were randomized (1:1:1) to receive 30 mg or 60 mg Compound A or placebo (PBO) twice daily for 26 weeks. Participants were stratified by standard of care (SoC) IPF therapy (pirfenidone versus nintedanib versus none) and region (Japan versus Rest of World) at randomization.
Patient experiences any of the following, confirmed by retest within 15 minutes: • Seated systolic blood pressure <85 mmHg • Seated diastolic blood pressure <55 mmHg • Orthostatic hypotension
Patient experiences symptoms that, in the investigator's opinion, could be associated with a reduction in blood pressure and also experiences at least one of the following, confirmed by retest within 15 minutes: • Seated systolic blood pressure <100 mmHg or seated diastolic blood pressure <60 mmHg • Decrease of seated systolic blood pressure of ≥20 mmHg from the previous visit or decrease of seated diastolic blood pressure of ≥10 mmHg from the previous visit • Orthostatic hypotension • Orthostatic tachycardia

[2] = Active Total (30 mg and 60 mg groups)

LPA1, sequence (Q92633 whole entry): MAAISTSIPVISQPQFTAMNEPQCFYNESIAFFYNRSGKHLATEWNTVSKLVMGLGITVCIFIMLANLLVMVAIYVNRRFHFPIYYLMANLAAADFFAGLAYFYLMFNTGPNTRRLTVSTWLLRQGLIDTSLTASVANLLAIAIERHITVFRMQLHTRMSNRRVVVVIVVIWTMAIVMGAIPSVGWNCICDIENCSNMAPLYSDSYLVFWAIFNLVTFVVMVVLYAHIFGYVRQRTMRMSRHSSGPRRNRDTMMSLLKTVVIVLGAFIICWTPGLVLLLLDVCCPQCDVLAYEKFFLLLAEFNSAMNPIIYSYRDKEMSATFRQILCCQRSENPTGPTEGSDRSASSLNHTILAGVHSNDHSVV

Compound: CCCN(C)C(=O)OCc1c(-c2ccc(O[C@H]3CCC[C@H](C(=O)O)C3)c(C)n2)nnn1C [Compound A, (1S,3S)-3-((2-methyl-6-(1-methyl-5-(((methyl(propyl)carbamoyl)-oxy)methyl)-1H-1,2,3-triazol-4-yl)pyridin-3-yl)oxy)cyclohexane-1-carboxylic acid]
- Kb (LPA1): 6.9 nM
- Maximum of mean (±SD) reduction in DBP from baseline (column printed under the head Baseline (mmHg)) ([1]; Japanese MAD 30 BID (C1)): 8.8 ± 5.12 mmHg
- Maximum of mean (±SD) reduction in SBP from baseline ([1]; Japanese MAD 30 BID (C1)): 15.0 ± 6.84 mmHg
- Time of maximum mean SBP reduction ([1]; Japanese MAD 30 BID (C1)): 1-4 Day-h
- Maximum of mean (±SD) reduction in DBP from baseline (column printed under the head Baseline (mmHg)) ([1]; Japanese MAD 60 BID (C2)): 8.2 ± 10.40 mmHg
- Maximum of mean (±SD) reduction in SBP from baseline ([1]; Japanese MAD 60 BID (C2)): 13.0 ± 8.22 mmHg
- Time of maximum mean DBP reduction ([1]; Japanese MAD 60 BID (C2)): 4-16 Day-h
- Time of maximum mean SBP reduction ([1]; Japanese MAD 60 BID (C2)): 2-16 Day-h
- Maximum of mean (±SD) reduction in DBP from baseline (column printed under the head Baseline (mmHg)) ([1]; Japanese MAD 90 BID (C2)): 8.0 ± 8.22 mmHg
- Maximum of mean (±SD) reduction in SBP from baseline ([1]; Japanese MAD 90 BID (C2)): 11.8 ± 8.47 mmHg
- Time of maximum mean DBP reduction ([1]; Japanese MAD 90 BID (C2)): 1-6 Day-h
- Time of maximum mean SBP reduction ([1]; Japanese MAD 90 BID (C2)): 1-6 Day-h
- Dose dependence of mean BP reduction ([1]; Japanese MAD cohorts): no clear Compound A dose-dependent BP reduction trend
- Dose reductions to 10 mg BID due to protocol-defined low BP criteria (participants with IPF; 30 mg BID): 7 (7.7%) n (%) and 7 (7.7) n (%)
- Treatment discontinuations due to TEAEs (participants with IPF; 30 mg BID): 9.9%
- Asymptomatic low blood pressure (participants with IPF; 30 mg BID (N = 91)): 22 (24.2%) n (%) and 22 (24.2) n (%)
- Orthostatic hypotension observed in asymptomatic low BP (participants with IPF; 30 mg BID (N = 91)): 21 (23.1%) n (%) and 21 (23.1) n (%)
- Orthostatic hypotension observed in symptomatic low BP (participants with IPF; 30 mg BID (N = 91)): 9 (9.9%) n (%) and 9 (9.9) n (%)
- Orthostatic intolerance (participants with IPF; 30 mg BID (N = 91)): 10 (11.0%) n (%) and 10 (11.0) n (%)
- Subjects discontinuing study treatment due to a TEAE (participants with IPF; 30 mg BID (N = 91)): 9 (9.9%) n (%) and 9 (9.9) n (%)
- Subjects who died (participants with IPF; 30 mg BID (N = 91)): 4 (4.4%) n (%) and 4 (4.4) n (%)
- Subjects who died due to a TEAE (participants with IPF; 30 mg BID (N = 91)): 3 (3.3%) n (%) and 3 (3.3) n (%)
- Subjects with at least one AESI (participants with IPF; 30 mg BID (N = 91)): 18 (19.8%) n (%) and 18 (19.0) n (%)
- Subjects with at least one TEAE (participants with IPF; 30 mg BID (N = 91)): 69 (75.8%) n (%) and 69 (75.8) n (%)
- Subjects with at least one TEAE related to the study treatment (participants with IPF; 30 mg BID (N = 91)): 23 (25.3%) n (%) and 23 (25.3) n (%)
- Subjects with at least one TESAE (participants with IPF; 30 mg BID (N = 91)): 10 (11.0%) n (%) and 10 (11.0) n (%)
- Symptomatic low blood pressure (participants with IPF; 30 mg BID (N = 91)): 11 (12.1%) n (%) and 11 (12.1) n (%)
- Nadir post-dose mean reduction from baseline in sitting SBP (participants with IPF; 30 mg): −10.5 mmHg
- Dose reductions to 10 mg BID due to protocol-defined low BP criteria (participants with IPF; 60 mg BID): 6 (6.5%) n (%) and 6 (6.5) n (%)
- Treatment discontinuations due to TEAEs (participants with IPF; 60 mg BID): 6.5%
- Asymptomatic low blood pressure (participants with IPF; 60 mg BID (N = 93)): 17 (18.3%) n (%) and 17 (18.3) n (%)
- Orthostatic hypotension observed in asymptomatic low BP (participants with IPF; 60 mg BID (N = 93)): 14 (15.1%) n (%) and 14 (15.1) n (%)
- Orthostatic hypotension observed in symptomatic low BP (participants with IPF; 60 mg BID (N = 93)): 5 (5.4%) n (%) and 5 (5.4) n (%)
- Orthostatic intolerance (participants with IPF; 60 mg BID (N = 93)): 2 (2.2%) n (%) and 2 (2.2) n (%)
- Subjects discontinuing study treatment due to a TEAE (participants with IPF; 60 mg BID (N = 93)): 6 (6.5%) n (%) and 6 (6.5) n (%)
- Subjects who died (participants with IPF; 60 mg BID (N = 93)): 5 (5.4%) n (%) and 5 (5.4) n (%)
- Subjects who died due to a TEAE (participants with IPF; 60 mg BID (N = 93)): 4 (4.3%) n (%) and 4 (4.3) n (%)
- Subjects with at least one AESI (participants with IPF; 60 mg BID (N = 93)): 9 (9.7%) n (%) and 9 (9.7) n (%)
- Subjects with at least one TEAE (participants with IPF; 60 mg BID (N = 93)): 69 (74.2%) n (%) and 69 (74.2) n (%)
- Subjects with at least one TEAE related to the study treatment (participants with IPF; 60 mg BID (N = 93)): 25 (26.9%) n (%) and 25 (26.9) n (%)
- Subjects with at least one TESAE (participants with IPF; 60 mg BID (N = 93)): 10 (10.8%) n (%) and 10 (10.8) n (%)
- Symptomatic low blood pressure (participants with IPF; 60 mg BID (N = 93)): 6 (6.5%) n (%) and 6 (6.5) n (%)
- Risk of orthostatic and low BP events compared to PBO (participants with IPF; 60 mg twice daily (BID)): not associated with any increased risk of orthostatic intolerance, orthostatic hypotension, orthostatic tachycardia, or symptomatic or asymptomatic low BP
- Nadir post-dose mean reduction from baseline in sitting SBP (participants with IPF; 60 mg): −14.1 mmHg
- Subjects discontinuing study treatment due to a TEAE (participants with IPF; [2]): 15 (8.2) n (%)
- Subjects who died (participants with IPF; [2]): 9 (4.9) n (%)
- Subjects who died due to a TEAE (participants with IPF; [2]): 7 (3.8) n (%)
- Subjects with at least one AESI (participants with IPF; [2]): 27 (14.7) n (%)
- Subjects with at least one TEAE (participants with IPF; [2]): 138 (75.0) n (%)
- Subjects with at least one TEAE related to the study treatment (participants with IPF; [2]): 48 (26.1) n (%)
- Subjects with at least one TESAE (participants with IPF; [2]): 20 (10.9) n (%)
